From patent US20060014949A1 (SuperGen Inc., priority 2004, published 2006)

How the values were obtained:
Format in all cases: physicochemical
[1] = Moisture sorption/desorption analysis (VTI SGA-100); conditions: for Weight % chg: Table 3
Method: Moisture sorption/desorption data were collected on a VTI SGA-100 Vapor Sorption Analyzer. Sorption and desorption data were collected over a range of 5 to 95% relative humidity (RH) at 10% RH increments under a nitrogen purge. Sodium chloride (NaCl) and polyvinylpyrrolidone (PVP) were used as the calibration standards. Equilibrium criteria used for analysis were less than 0.0100% weight change in 5 minutes, with a maximum equilibration time of 180 minutes if the weight criterion was not met. Data collected were not corrected for the initial moisture content of the samples.

[2] = Relative humidity stress experiments, XRPD after storage over saturated salt solutions; conditions: Sodium Chloride, 75.5 % RH @ 20° C., 27 days
Method: In relative humidity (RH) stress analysis, open vials containing solid samples were placed inside chambers containing saturated salt solutions along with a small amount of the undissolved salt. The chambers were sealed and allowed to stand at ambient temperature for several days. Samples were analyzed by X-ray powder diffraction (XRPD) immediately after removing the sample from the RH chamber. The RH values these salt solutions were obtained from an ASTM standard.

[3] = Thermogravimetric analysis (TGA); conditions: 25 to 150° C.; listed as A
Method: Thermogravimetric analysis (TGA) was carried out on TA Instruments TGA 2050 or 2950. The calibration standards were nickel and Alumel™. Samples were placed on a clean, aluminum sample pan, accurately weighed, and inserted into the TGA furnace. The samples were heated in nitrogen at a rate of 10° C./min, from 35° C. to a final temperature of 250° C.

[4] = Solid-state stress (compression, heating, grinding, storage) with XRPD form check; conditions: no solvent; Hydraulic Press 10,000 lbs 1 hour
Method: X-ray powder diffraction analyses were carried out on a Shimadzu XRD-6000 X-ray powder diffractometer using Cu Kα radiation having a wavelength of 1.5406 Å. The instrument is equipped with a fine-focus X-ray tube. The tube power was set by setting potential difference at 40 kV, and current 40 mA. The divergence and scattering slits were set at 1° and the receiving slit was set at 0.15 mm. Diffracted radiation was detected by a NaI scintillation detector. A theta-two theta continuous scan at 3°/min (0.4 sec/0.02° step) from 2.5 to 40 °2θ was performed. A silicon standard was analyzed each day to check the instrument alignment. Each sample was analyzed in a quartz sample holder. A variable temperature (VT-XRPD) experiment was performed on one form. The sample was prepared for analysis by pressing it into a variable temperature holder.

SMILES: Nc1ncn([C@H]2C[C@H](O)[C@@H](CO)O2)c(=O)n1 [Form A]
- total weight loss in the region from 5 to 45% RH ([1]; 5 to 45% RH): about 0.1%
- total weight gain from 5 to 95% RH ([1]; 5 to 95% RH, listed as form A): 7.3%
- Weight % chg ([1]; desorption, RH 4.93 %, 24.89 deg C, 533.4 min): 7.1472%
- Weight % chg ([1]; desorption, RH 15.15 %, 24.89 deg C, 524.9 min): 7.1528%
- Weight % chg ([1]; desorption, RH 25.13 %, 24.88 deg C, 515.4 min): 7.1586%
- Weight % chg ([1]; desorption, RH 35.12 %, 24.88 deg C, 504.8 min): 7.1671%
- Weight % chg ([1]; desorption, RH 45.07 %, 24.87 deg C, 493.8 min): 7.1753%
- Weight % chg ([1]; desorption, RH 55.14 %, 24.88 deg C, 480.8 min): 7.1837%
- Weight % chg ([1]; desorption, RH 65.19 %, 24.88 deg C, 467.8 min): 7.1925%
- Weight % chg ([1]; desorption, RH 75.49 %, 24.88 deg C, 454.8 min): 7.2022%
- Weight % chg ([1]; desorption, RH 85.43 %, 24.89 deg C, 443.8 min): 7.2106%
- Weight % chg ([1]; sorption, RH 5.14 %, 24.92 deg C, 27.9 min): −0.0698%
- Weight % chg ([1]; sorption, RH 14.81 %, 24.92 deg C, 41.6 min): −0.0784%
- Weight % chg ([1]; sorption, RH 24.88 %, 24.92 deg C, 51.2 min): −0.0804%
- Weight % chg ([1]; sorption, RH 34.89 %, 24.92 deg C, 62.2 min): −0.0733%
- Weight % chg ([1]; sorption, RH 44.86 %, 24.91 deg C, 82.2 min): −0.1004%
- Weight % chg ([1]; sorption, RH 54.83 %, 24.91 deg C, 93.2 min): −0.0931%
- Weight % chg ([1]; sorption, RH 64.82 %, 24.91 deg C, 107.7 min): −0.0775%
- Weight % chg ([1]; sorption, RH 74.73 %, 24.91 deg C, 118.3 min): −0.0646%
- Weight % chg ([1]; sorption, RH 84.63 %, 24.91 deg C, 304.2 min): 3.8389%
- Weight % chg ([1]; sorption, RH 94.67 %, 24.90 deg C, 433.1 min): 7.2104%
- Weight % chg ([1]; start, RH 1.46 %, 24.92 deg C, 0.0 min): 0.0000%
- solid form after moisture sorption/desorption analysis ([1]; after sorption/desorption cycle, listed as form A): retained during the desorption cycle as decitabine polymorph form B
- weight (water) lost upon equilibration to 5% RH ([1]; equilibration to 5% RH, listed as form A): 0.06%
- RH above which moisture sorption begins ([1]; sorption cycle): above 75 % RH
- XRPD result [2]: converts into form B
- TGA Results: percent weight change from 25 to 150° C. [3]: <0.1%
- XRPD Pattern [4]: did not induce a form change
